Assay results from patent publication US4201774A, “Novel aminoglycoside derivatives” (Shionogi & Co., Ltd., priority 1977, dated 1980).
In brackets after ≈: the same amount, converted by molar mass.

Experiments:
[1] = test system: Pseudomonas aeruginosa TB-485; assay: MIC, Pseudomonas aeruginosa TB-485*; format: cell-based; conditions: TB485; Pseudomonas aeruginosa TB-485, tobramycin resistant strain; read-out: minimum inhibitory concentration (MIC)
Proteus mirabilis TB-617 = assay: MIC, Proteus mirabilis TB-617*; format: cell-based; conditions: TB617; Proteus mirabilis TB-617, tobramycin resistant strain; read-out: minimum inhibitory concentration (MIC)

Structure (SMILES) | MIC [1] [µg/mL] | MIC (Proteus mirabilis TB-617) [µg/mL]
NC[C@H]1O[C@H](O[C@H]2[C@H](O)[C@@H](O[C@H]3O[C@H](CO)[C@@H](O)[C@H](N)[C@H]3O)[C@H](NCC3(O)CNC3)C[C@@H]2N)[C@H](N)C[C@@H]1O [Test compound (1), 1-N-[(3-hydroxyazetidin-3-yl)methyl]tobramycin] | 6.25 (≈ 11.3 µM) | 1.56 (≈ 2.82 µM)
NC[C@H]1O[C@H](O[C@H]2[C@H](O)[C@@H](O[C@H]3O[C@H](CO)[C@@H](O)[C@H](N)[C@H]3O)[C@H](NCC3(O)CCNC3)C[C@@H]2N)[C@H](N)C[C@@H]1O (stereo partly shown) [Test compound (2), 1-N-[(3-hydroxypyrrolidin-3-yl)methyl]tobramycin] | 3.13 (≈ 5.52 µM) | 1.56 (≈ 2.75 µM)
NC[C@H]1O[C@H](O[C@H]2[C@H](O)[C@@H](O[C@H]3O[C@H](CO)[C@@H](O)[C@H](N)[C@H]3O)[C@H](NCC3(O)CNC3)C[C@@H]2N)[C@H](O)[C@@H](O)[C@@H]1O [Test compound (3), 1-N-[(3-hydroxyazetidin-3-yl)methyl]kanamycin A] | 6.25 (≈ 11 µM) | 6.25 (≈ 11 µM)
NC[C@H]1O[C@H](O[C@H]2[C@H](O)[C@@H](O[C@H]3O[C@H](CO)[C@@H](O)[C@H](N)[C@H]3O)[C@H](NCC3(O)CCNC3)C[C@@H]2N)[C@H](O)[C@@H](O)[C@@H]1O (stereo partly shown) [Test compound (4), 1-N-[(3-hydroxypyrrolidin-3-yl)methyl]kanamycin A] | 6.25 (≈ 10.7 µM) | 3.13 (≈ 5.36 µM)
NC[C@H]1O[C@H](O[C@H]2[C@H](O)[C@@H](O[C@H]3O[C@H](CO)[C@@H](O)[C@H](N)[C@H]3O)[C@H](N)C[C@@H]2N)[C@H](N)C[C@@H]1O [Test compound (5), tobramycin, reference compound] | 25 (≈ 53.5 µM) | 6.25 (≈ 13.4 µM)
